Values joined by “and” are separate entries in the source; they are usually repeats but may differ in a detail not shown here. Identical values can stand only once.

The test system of data set [1] is acetylated histones in peripheral mononuclear cells. The experiment in a line: Histone acetylation in peripheral blood mononuclear cells after SAHA capsules (anti-acetylated histone H3 antibody). Type of data set: in vivo, patients. The settings on record: 400 mg per day dose level, preliminary analysis. The method, then: Peripheral blood mononuclear cells were collected pre-therapy, immediately post-infusion and between 2-10 hours after oral ingestion of the SAHA capsules to assess the effect of SAHA on the extent of histone acetylation in a normal host cell. Histones were isolated and probed with anti-acetylated histone (H3) antibody followed by HRP-secondary antibody.

Data set [2] is classed as in vivo, patients. The settings on record: once a day, continuous. The source says:
(§1) In another experiment, twenty-five patients with solid tumors have been enrolled onto arm A, thirteen patients with Hodgkin's or non-Hodgkin's lymphomas have been enrolled onto arm B, and one patient with acute leukemia and one patient with myelodysplastic syndrome have been enrolled onto arm C, as shown in Table 4.
Among eleven patients treated in Cohort II, one patient experienced the DLT of grade 3 diarrhea and grade 3 dehydration during the first treatment cycle. Nine patients were entered into Cohort III. Two patients were inevaluable for the 28-day toxicity assessment because of early study termination due to rapid progression of disease. Of the seven remaining patients, five experienced DLT during the first treatment cycle: diarrhea/dehydration (n=1), fatigue/dehydration (n=1), anorexia (n=1), dehydration (n=1) and anorexia/dehydration (n=1). These five patients recovered in approximately one week after the study drug was held. They were subsequently dose reduced to 400 mg QD which appeared to be well tolerated. The median days on 400 mg BID for all patients in Cohort III was 21 days. […] Following protocol amendment, accrual was continued in cohort IV at a dose of 600 mg once a day. Of the seven patients enrolled onto cohort IV, two were inevaluable for the 28-day toxicity assessment because of early study termination due to rapid progression of disease. […]

Data set [3] can be described thus: Serum plasma levels of SAHA after IV and oral dosing (HPLC assay, LCMS using a deuterated standard). Type of data set: in vivo, humans. The settings on record: human. The method, then: Objectives: To define a safe daily oral regimen of SAHA that can be used in Phase II studies. In addition, the pharmacokinetic profile of the oral formulation of SAHA was be evaluated. The oral bioavailability of SAHA in humans in the fasting vs. non-fasting state and anti-tumor effects of treatment were also monitored. Additionally, the biological effects of SAHA on normal tissues and tumor cells were assessed and responses with respect to levels of histone acetylation were documented.
Patients: Patients with histologically documented advanced stage, primary or metastatic adult solid tumors that are refractory to standard therapy or for which no curative standard therapy exists. Patients must have a Karnofsky Performance Status of ≧70%, and adequate hematologic, hepatic and renal function. Patients must be at least four weeks from any prior chemotherapy, radiation therapy or other investigational anticancer drugs.
Dosing Schedule: On the first day, patients were first treated with 200 mg of intravenously-administered SAHA. Starting on the second day, patients were treated with daily doses of oral SAHA according to Table 1. Each cohort received a different dose of SAHA. “QD” indicates dosing once a day; “Q12 hours” indicates dosing twice a day. For example, patients in Cohort IV received […] of SAHA per day. Doses were administered to patients daily and continuously. Blood samples were taken on day one and on day 21 of oral treatment. Patients were taken off oral SAHA treatment due to disease progression, tumor regression, unacceptable side effects, or treatment with other therapies.
Cmax is the maximum concentration of SAHA observed after administration. IV SAHA was administered at 200 mg infused over two hours. The oral SAHA was administered in a single capsule at 200 mg. Tables 2 and 3 summarize the results of an HPLC assay (LCMS using a deuterated standard) that quantitates the amount of SAHA in the blood plasma of the patients versus time, using acetylated histone-4 (α-AcH4) as a marker.

Data set [4] is described as follows: Interim pharmacokinetic analysis of oral SAHA, dose escalation study. The format is in vivo, patients. The method, then:
as §1
The interim pharmacokinetic analysis was based on 18 patients treated on the dose levels of 200 mg QD, 400 mg QD, and 400 mg BID. […] Overall, the fraction of AUCinf due to extrapolation was 1% or less.

The subject of data set [5] is carcinogen-induced (N-methylnitrosourea) mammary tumors. The settings on record: rats, SAHA in the diet over 130 days; cited from earlier work.
Data set [6] relates to solid tumors, Hodgkin's or non-Hodgkin's lymphomas, leukemia. The data set is described as follows: Anti-tumor response in patients on oral SAHA. Type of data set: in vivo.
From the text: as §1
Thirteen patients continued treatment for 3-12 months with responding or stable disease: thyroid (n=3), sweat gland (n=1), renal (n=2), larynx (n=1), prostate (n=1), Hodgkin's lymphoma (n=2), non-Hodgkin's lymphoma (n=2), and leukemia (n=1).
Six patients had tumor shrinkage on CT scans. Three of these six patients meet the criteria of partial response (one patient with metastatic laryngeal cancer and two patients with non-Hodgkin's lymphomas). These partial responses occurred at the dose levels of 400 mg BID (n=2) and 600 mg QD (n=1).

The test system of data set [7] is murine erythroleukemia cells (MELC). The settings on record: without continuing drug exposure; cited from earlier work.
[8] abbreviates: iv, 200 mg, Patient #1, IV, 200 mg infused over two hours.
The mark [9] stands for this setting: iv, 200 mg, Patient #2, IV, 200 mg infused over two hours.
Where [10] appears, read: po, 200 mg, Patient #1, oral (fasting), single capsule 200 mg.
[11] abbreviates: po, 200 mg, Patient #1, oral (nonfasting), single capsule 200 mg.
[12] abbreviates: po, 200 mg, Patient #2, oral (fasting), single capsule 200 mg.
[13] abbreviates: po, 200 mg, Patient #2, oral (nonfasting), single capsule 200 mg.

With `O=C(CCCCCCC(=O)Nc1ccccc1)NO` [SAHA, suberoylanilide hydroxamic acid], the “Time after ingestion up to which increased accumulation of acetylated histones could be detected” value in data set [1] is listed as “up to 10 hours”. Besides, the “Maximally tolerated dose for once daily oral administration” value in data set [2] is given as 400 mg. The half-life in data set [3] (Patient #2, oral (fasting), single capsule 200 mg) was 1.37 h; in data set [3] (setting [8]) it was 0.333 h; in data set [3] (setting [9]), 0.35 h; in data set [3] (setting [10]) it was 1.33 h; in data set [3] (setting [11]), 1.07 h; in data set [3] (setting [13]), 1.55 h. For the same compound, the half-life in data set [4] (human, plasma, oral, across dose groups 200 mg QD, 400 mg QD, 400 mg BID, fasting or with food, 18 patients, read-out: Mean estimates for apparent half-life) is 1.02 to 1.9 h. The AUC in data set [3] (setting [8]) is 2550 ng·h/mL; in data set [3] (setting [9]) it was 1800 ng·h/mL; in data set [3] (setting [10]), 417 ng·h/mL; in data set [3] (setting [11]), 983 ng·h/mL; in data set [3] (setting [12]), 1050 ng·h/mL; in data set [3] (setting [13]) it was 998 ng·h/mL. The Cmax in data set [3] (setting [8]) was found to be 1330 ng/mL; in data set [3] (setting [9]), 1000 ng/mL; in data set [3] (setting [10]), 225 ng/mL; in data set [3] (setting [11]), 328 ng/mL; in data set [3] (setting [12]), 362 ng/mL; in data set [3] (setting [13]), 302 ng/mL. Also, in data set [4] (human, plasma, oral, dose levels 200 mg QD, 400 mg QD, 400 mg BID, 18 patients, read-out: Mean estimates of Cmax), the Cmax was 233 ng/mL to 570 ng/mL and 880 nM to 2.3 µM. Also, the bioavailability in data set [4] (human, plasma, calculated from the AUCinf values after the IV infusion and oral routes, read-out: Bioavailable fraction of SAHA) is roughly 48%. Also, in data set [4] (oral, fasting or with food, 200 mg to 400 mg dose range), the “Dose dependence of mean estimates of Cmax and AUCinf” value is reported as “increased proportionally with dose”. The “Effect on development and continued growth of mammary tumors” value in data set [5] was “effective at inhibiting the development and continued growth”. Further, the “Patients meeting the criteria of partial response” value in data set [6] (dose levels 400 mg BID (n=2) and 600 mg QD (n=1), laryngeal cancer, non-Hodgkin's lymphomas) is listed as “Three”. In addition, the “Patients with tumor shrinkage on CT scans” value in data set [6] (oral SAHA) is recorded as “Six”. The “Patients who continued treatment for 3-12 months with responding or stable disease” value in data set [6] (oral SAHA, 40 patients enrolled) was “Thirteen”.
As to `CC(=O)NCCCCCCNC(C)=O` [HMBA, N,N′-hexamethylene bisacetamide], the “Minimum duration of continuous exposure required to induce differentiation in a substantial portion (>20%) of the population” value in data set [7] is given as “about 36 hours”.

A word on the half-life: it is the time needed for the level to fall by half in the phase considered. Usually AUC stands for the area under the concentration-time curve, a measure of exposure. Read a high AUC as more exposure. A word on the Cmax: it is the highest concentration seen after dosing.

These data come from patent US8101663B2, “Polymorphs of suberoylanilide hydroxamic acid” (Merck HDAC Research, LLC, priority 2002, dated 2012).
